Literature values, collected in US5741892A, “Pentapeptides as antitumor agents” (Basf Aktiengesellschaft, priority 1996, dated 1998).

Columns and labels:
[1] = system: four different human lymphoma cell lines
[2] = system: P388 lymphocytic leukemia (PS system) cell line
[3] = synthetic Dolastatin 10

Substance | inhibition of tubulin polymerization (tubulin) | inhibition of growth of lymphoma cell lines [1] | inhibition of cell growth [2] | solubility in aqueous systems [3]
Dolastatin 15 | effectively inhibit | effectively inhibit | inhibits the growth | –
Dolastatin 10 | effectively inhibit | effectively inhibit | – | poor solubility in aqueous systems
